How the values were obtained:
[1] = molecular target: T1, σ-1 receptors (Homo sapiens, UniProt Q99720); assay: affinity for σ-1 receptors; assay type: binding; conditions: read-out: affinity for σ-1 receptors (pKi) (converted)
[2] = test system: scopolamine and dizocilpine (MK-801) induced amnesia or amyloid peptide β25-35 (Aβ25-35); assay: anti-amnesic action in mice; assay type: in vivo; conditions: per os (po)
Procedure: The above molecular profile is the basis for AE14 modulatory role over the G-protein coupled receptors (GPCRs) and its pharmacological properties: anti-amnesic action (antagonistic action against scopolamine and dizocilpine (MK-801) induced amnesia or amyloid peptide β25-35 (Aβ25-35), at low doses (from 0.03 mg/kg administered per os (po), in mice). This unique new profile of AE14: anti-apoptotic via agonistic sigma-1 regulation of the volume regulated chloride channels (VRCC), anti-oxidative stress via agonistic action on the sigma-1 receptors of the ER-mitochondrion.

[3] = test system: ER stress; assay: protocols of acute or chronic ER and cellular stress, in vitro and in vivo; parameters: species or system mice
[4] = molecular target: σ-2 receptors (Homo sapiens, UniProt Q5BJF2); assay: affinity for σ-2 receptors; assay type: binding
[5] = test system: PTZ-induced tonic crises; assay: protection against pentylenetetrazole (PTZ) induced stress and tonic crises; conditions: in vitro or in vivo, on mice
[6] = molecular target: T1, σ-1 receptors; assay: agonistic/antagonistic action on σ-1 receptors
[7] = test system: cancer cells: colorectal, prostate, ovarian renal, pancreas, lung, gliomas, glioblastomas leukemia, lymphomas, melanomas, sarcomas and hepatoma
[8] = test system: primary (drug resistant) melanoma; assay: in vivo anticancer activity in mice xenografts
Description: All molecules present strong chemical affinities (sub-nanomolar to micromolar) for α-1 receptors with antagonistic action (except AdAE and AdPhAE which are weak agonists) and with nanomolar to micromolar affinities for α-2 receptors and agonistic action. Therefore, all molecules above and their derivatives are pro-apoptotic and only at very low concentrations or doses are anti-apoptotic. All molecules above are toxic to the cancer cells: colorectal, prostate, ovarian renal, pancreas, lung, gliomas, glioblastomas leukemia, lymphomas, melanomas, sarcomas and hepatoma, with antiproliferative and cytotoxic concentrations usually lower than 10 microMolar (μM), for more than 50 of the above derivatives. […] The pharmacological profile of the above molecules is totally prototypical and original giving the possibility of a therapeutic synergy with the clinically used anticancer drugs with simultaneous antagonism and protection against the most grave secondary effects i.e., neuropathic pain and disability induced by the clinically used anticancer drugs.

[9] = test system: breast; assay: in vitro cytotoxicity, breast; assay type: cell-based
[10] = test system: primary (drug resistant) melanoma; assay: in vitro cytotoxicity, primary melanoma; assay type: cell-based
[11] = test system: leukaemia; assay: in vitro cytotoxicity, leukaemia; assay type: cell-based
[12] = test system: colon; assay: in vitro cytotoxicity, colon; assay type: cell-based
[13] = test system: lung; assay: in vitro cytotoxicity, lung; assay type: cell-based
[14] = test system: glioblastomas; assay: in vitro cytotoxicity, glioblastomas; assay type: cell-based

T1 sequence (Q99720 whole entry): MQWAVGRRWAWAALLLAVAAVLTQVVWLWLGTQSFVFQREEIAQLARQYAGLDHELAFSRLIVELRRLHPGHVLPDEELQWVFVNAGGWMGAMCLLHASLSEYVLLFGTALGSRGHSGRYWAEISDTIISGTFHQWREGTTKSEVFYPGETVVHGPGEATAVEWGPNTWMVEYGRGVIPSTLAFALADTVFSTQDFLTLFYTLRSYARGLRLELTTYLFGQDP
Chain of σ-2 receptors (Q5BJF2 whole entry): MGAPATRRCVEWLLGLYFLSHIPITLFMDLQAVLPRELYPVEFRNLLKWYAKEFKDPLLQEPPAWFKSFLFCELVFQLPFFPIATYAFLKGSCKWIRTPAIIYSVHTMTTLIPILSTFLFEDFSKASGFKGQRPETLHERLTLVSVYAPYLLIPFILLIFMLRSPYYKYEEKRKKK

CN(C)CC1COC(c2ccccc2)(c2ccccc2)C1 (centres unmarked) [AE14, Tetrahydro-N,N,-Dimethyl-5,5-Diphenyl-3-Furanomethanamine]
Ki [1]: 0.0251 µM
anti-amnesic action, active doses [2]: ≥ 0.03 mg/kg
effect on ER stress ([3]; acute or chronic cellular stress, oligopeptides or streptozocin, in vitro and in vivo on mice): antagonized the ER stress
Ki [4]: > 10 µM
affinity for σ-2 receptors, times lower than for σ-1 ([4]; σ-2 versus σ-1): more than 100 times

CNCC1CCOC1(c1ccccc1)c1ccccc1 (centres unmarked) [AE37 Met, Tetrahydro-N-Methyl-2,2-Diphenyl-3-Furanomethanamine]
protection against ER-mitochondrion anoxia and oxidative stress caused by PTZ [5]: exceptional protection
activity relative to AE37 ([3]; for the properties mentioned for AE37): slightly more active than AE37

CN(C)CC1CCOC1(c1ccccc1)c1ccccc1 (centres unmarked) [AE37, Tetrahydro-N,N-Dtiviethyl-2,2-Dinienyl-3-Furanomethanamine]
Ki [1]: 0.501 µM
anti-apoptotic properties ([3]; chronic ER and cellular stress, in vitro and in vivo on mice): high anti-apoptotic properties
affinity for σ-2 receptors [4]: no affinity
action on σ-1 receptors [6]: selective σ-1 agonist

COc1ccc(CCN2CCC(Nc3nc4ccccc4n3Cc3ccc(F)cc3)CC2)cc1 [AST, Astemizole]
cytotoxicity, in vitro [7]: 3.0 to 5.0 µM

CN(C)CC1COC2(C1)C1CC3CC(C1)CC2C3 (centres unmarked) [AdAE, (DIHYDRO-4-(DIMETHYLAMINOMETHYL)SPIRO {FURANE-2(3H),2′-TRICYCLO[3.3.1.13,7]DECANE}]
action on σ-1 receptors [6]: weak agonists

CN(C)CC1COC(c2ccccc2)(C23CC4CC(CC(C4)C2)C3)C1 (centres unmarked) [AdPhAE, 5-(TRICYCLO[3.3.1.13,7]DEC-1-YL)-TETRAHYDRO-N,N-DIMETHYL-5-PHENYL-3-FURANEMETHANAMINE]
action on σ-1 receptors [6]: weak agonists

CN(C)/N=N/c1[nH]cnc1C(N)=O [Dacarbazine]
in vivo anticancer activity [8]: inactive

CN(C)c1ccc2nc3ccc(=[N+](C)C)cc-3sc2c1 [MB, Methylene blue]
cytotoxicity, in vitro [9]: ~2.0 µM
cytotoxicity, in vitro [10]: lower than 1.0 μM
cytotoxicity, in vitro [11]: lower than 1.0 μM
cytotoxicity, in vitro [12]: ~2.0 µM
cytotoxicity, in vitro [13]: lower than 1.0 μM
in vivo anticancer activity [8]: confirmed in vivo
cytotoxicity, in vitro [14]: ~2.0 µM

CCN(CC)CCCC(C)Nc1c2ccc(Cl)cc2nc2ccc(OC)cc12 (centres unmarked) [QNC, Quinacrine]
in vivo anticancer activity [8]: outstanding in vivo activity
